Assay [1] relates to MORFN F287A complex. Description: HAT assay, MORFN F287A complex overexpressed in 293T cells. Type of assay: biochemical. The note with it: H3K23ac peptide residues 1–29, 3H-Ac-CoA, pH 8, 30 min at 30 °C, CPM, n = 2. As to the method:
Cells were harvested 48 h post-co-transfection and lysed in high-salt buffer (450 mM NaCl, 50 mM Tris-HCl (pH 8.0), 1% TX-100, 2 mM MgCl2, 0.1 mM ZnCl2, 2 mM EDTA, 10% glycerol) supplemented with protease inhibitor mixture. The NaCl concentration was reduced to 225 mM and the whole cell extract centrifuged at 14,000 rpm for 30 min. […] FLAG beads were next washed with the 225 mM NaCl buffer and eluted with 200 μg/ml of 3× FLAG peptide (Sigma).
In Fig. 4e and Supplementary Fig. 7, FLAG-tagged MORF proteins were overexpressed and prepared from transiently transfected 293T cells. Briefly, approximately 2 mg of total cell extract was incubated with 25 μl of M2-agarose beads (Sigma) overnight at 4 °C. […]
Acetyltransferase activity of the purified complexes was measured with 0.125 µCi of ^3H labeled Ac-CoA (2.1 Ci/mmol; PerkinElmer Life Sciences). […] The reactions were then captured on P81 filter paper, the free H3-labeled Ac-CoA was washed away and the paper was analyzed using Liquid Scintillation. […]
In Fig. 4e and Supplementary Fig. 7, purified MORF proteins were incubated at 37 °C for indicated times with peptides (1 μg) and 0.1 mM acetyl-CoA in HAT reaction buffer (50 mM Tris, pH 8.0, 0.1 mM EDTA, 10% glycerol, 1 mM PMSF, and 1 mM DTT) in a total volume of 50 μL. Reactions were quenched by flash-freezing in liquid nitrogen and then analyzed by SDS-PAGE and Western blot.

Assay [2] has as its system MORFN complex. Description: HAT assay, WT MORFN complex overexpressed in 293T cells. Type of assay: biochemical. The note with it: H3 peptides residues 1–29, 3H-Ac-CoA, pH 8, 30 min at 30 °C, CPM, n = 2.
Excerpt: (§1) The amounts of native (K562) or overexpressed (293T) MORF complexes were normalized empirically following SDS-PAGE and transfer onto nitrocellulose membrane. Anti-FLAG M2 conjugated to horseradish peroxydase (HRP; Sigma) was used at a 1:10,000 dilution and the immunoblots were visualized using a Western Lightning plus-ECL reagent (Perkin-Elmer). Anti-HA-HRP (clone 3F10, Roche) was used at a 1:2000 dilution.
Assay [3] has as its system native MORF complex. As to the kind of experiment: HAT assay, native MORF complex from K562 cells. The format is biochemical, Homo sapiens. The note with it: native WT MORF complex; H3 peptides residues 1–29, 3H-Ac-CoA, pH 8, 30 min at 30 °C; scintillation CPM; n = 2.
Description: For purification of native complexes, after large-scale expansion of K562 clones, tandem affinity purifications (TAP) of MORF and MOZ complexes were performed on nuclear extracts as previously described[43]. Briefly, nuclear extracts were prepared following standard procedures and precleared with CL6B Sepharose beads.
as §1

Consider “H3K23ac: H3 peptide (residues 1–29) pre-acetylated at Lys23”, for which the “HAT activity of MORFN F287A complex, in words” value in assay [1] was “substantially reduced residual enzymatic activity”. Moreover, the “decrease in HAT activity relative to unmodified H3 peptide” value was ~ 7 fold in assay [2] (WT MORFN complex (293T)) and ~ 12 fold in assay [3]. In assay [2] (WT MORFN complex), the “HAT activity of MORFN complex, in words” value is recorded as “substantially reduced residual enzymatic activity”.

The values above are taken from publication PMC6797804, “Histone H3K23-specific acetylation by MORF is coupled to H3K14 acylation” (Nature Communications, 2019).
